The structures appear in SMILES notation.

The assay has as its target T1, ENaC (Epithelial Sodium Channel) (Mus musculus, UniProt Q61180+Q9WU38+Q9WU39).
T1 construct: Mouse kidney M-1 cells were cultivated in DMEM containing 5% FCS and 5 μM dexamethasone; endogenous in cells; host or cells: Mouse kidney M-1 cells
T1 sequence (Q61180 1-699): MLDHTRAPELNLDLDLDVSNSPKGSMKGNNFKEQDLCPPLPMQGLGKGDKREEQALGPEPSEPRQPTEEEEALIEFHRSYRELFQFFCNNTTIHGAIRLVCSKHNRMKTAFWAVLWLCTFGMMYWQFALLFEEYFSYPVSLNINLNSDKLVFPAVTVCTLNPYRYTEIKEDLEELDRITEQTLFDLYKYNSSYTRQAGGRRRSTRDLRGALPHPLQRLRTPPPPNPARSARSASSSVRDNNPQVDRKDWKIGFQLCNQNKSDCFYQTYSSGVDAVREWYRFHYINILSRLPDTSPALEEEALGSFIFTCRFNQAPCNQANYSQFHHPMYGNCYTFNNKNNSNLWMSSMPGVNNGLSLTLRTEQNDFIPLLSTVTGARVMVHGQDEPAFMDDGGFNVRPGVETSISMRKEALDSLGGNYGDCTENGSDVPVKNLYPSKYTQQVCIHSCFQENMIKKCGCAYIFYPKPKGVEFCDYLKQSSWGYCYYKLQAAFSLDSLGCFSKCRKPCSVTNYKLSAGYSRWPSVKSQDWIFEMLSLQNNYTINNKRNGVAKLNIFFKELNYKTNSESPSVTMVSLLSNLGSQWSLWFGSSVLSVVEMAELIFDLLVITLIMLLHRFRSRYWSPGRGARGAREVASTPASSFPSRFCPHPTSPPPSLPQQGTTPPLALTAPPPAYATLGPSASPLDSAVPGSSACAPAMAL
T1 sequence (Q9WU38 1-638): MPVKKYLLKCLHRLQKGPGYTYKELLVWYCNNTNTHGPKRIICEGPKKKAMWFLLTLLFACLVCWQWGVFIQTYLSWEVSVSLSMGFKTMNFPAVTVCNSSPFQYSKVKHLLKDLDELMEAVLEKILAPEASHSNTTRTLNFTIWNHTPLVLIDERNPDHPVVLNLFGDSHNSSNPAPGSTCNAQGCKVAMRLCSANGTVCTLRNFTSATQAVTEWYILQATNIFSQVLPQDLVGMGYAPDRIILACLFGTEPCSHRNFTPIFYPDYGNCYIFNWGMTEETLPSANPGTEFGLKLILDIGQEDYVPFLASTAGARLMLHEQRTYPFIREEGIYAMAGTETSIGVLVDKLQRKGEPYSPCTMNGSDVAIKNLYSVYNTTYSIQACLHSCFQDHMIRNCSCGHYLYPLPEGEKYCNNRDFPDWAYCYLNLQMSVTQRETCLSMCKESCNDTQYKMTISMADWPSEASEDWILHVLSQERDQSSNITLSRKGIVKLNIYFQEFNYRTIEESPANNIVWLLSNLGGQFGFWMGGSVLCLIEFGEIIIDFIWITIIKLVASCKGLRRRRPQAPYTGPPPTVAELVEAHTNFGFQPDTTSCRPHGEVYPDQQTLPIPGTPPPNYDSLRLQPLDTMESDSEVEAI
T1 sequence (Q9WU39 1-655): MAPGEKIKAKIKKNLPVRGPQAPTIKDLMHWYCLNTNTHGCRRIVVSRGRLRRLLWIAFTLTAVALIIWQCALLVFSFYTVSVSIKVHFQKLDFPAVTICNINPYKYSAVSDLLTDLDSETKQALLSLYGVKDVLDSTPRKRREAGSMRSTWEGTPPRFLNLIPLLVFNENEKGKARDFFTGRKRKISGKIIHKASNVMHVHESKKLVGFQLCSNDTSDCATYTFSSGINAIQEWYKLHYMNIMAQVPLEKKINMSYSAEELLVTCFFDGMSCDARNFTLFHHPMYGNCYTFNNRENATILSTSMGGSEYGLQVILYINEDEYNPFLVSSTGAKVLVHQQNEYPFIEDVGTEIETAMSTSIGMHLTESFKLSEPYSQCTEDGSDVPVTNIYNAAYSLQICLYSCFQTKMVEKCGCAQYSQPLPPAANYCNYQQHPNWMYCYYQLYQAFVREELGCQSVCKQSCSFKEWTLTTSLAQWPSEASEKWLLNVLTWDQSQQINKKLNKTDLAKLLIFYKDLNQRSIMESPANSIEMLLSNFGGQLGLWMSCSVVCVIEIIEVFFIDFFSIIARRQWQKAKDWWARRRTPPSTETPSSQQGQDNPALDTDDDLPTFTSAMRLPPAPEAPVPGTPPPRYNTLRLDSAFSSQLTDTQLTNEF
The experiment in a line: Ussing Chamber assay (short circuit current, amiloride sensitive I_SC) in M-1 cells. Type of assay: cell-based. The note with it: Mouse kidney M-1 cells, apical application, 37° C. Here is the method: The IC50 values of the example compounds given above were determined in the Ussing Chamber assay.
Ussing Chamber: Mouse kidney M-1 cells were cultivated in DMEM containing 5% FCS and 5 μM dexamethasone for 10 to 12 days on polyester transwell filters. Filters were inserted into a teflon-coated well-plate which fit into the ussing chamber system. Prior to measurement the medium of M-1 cells was replaced with Caco-2 transport buffer (Invitrogen, Germany). During measurements, the Ussing chamber temperature was kept at 37° C. Short circuit currents (I_sc) were measured in the voltage-clamp mode with the software package Lab View for data acquisition and analysis. The transepithelial electrical resistance (TEER) was determined by the application of voltage steps of ±5 mV every 5 sec. Compounds were administered at a final concentration of 3 μM or at increasing concentrations (1-3-10 μM) to the apical solution. At the end of each experiment the amiloride sensitive I_SC was measured by adding 3 μM amiloride to the apical compartment. Results are expressed as inhibition in percent of the amiloride effect or as IC50.
Usually IC50 stands for the midpoint of a concentration-inhibition curve. Lower therefore signals higher potency. Molecule `CCCCCCN(C)C(=O)c1cc2c(cc1N1C[C@H](O)[C@@H](O)C1)n(CCO)c(CNC(=O)c1nc(Cl)c(N)nc1N)[n+]2CC` [Example 1.16] yielded an IC50 of 11 nM. This counts as double-digit nanomolar.

The molecule `CCn1c(CNC(=O)c2nc(Cl)c(N)nc2N)[n+](CC)c2ccc(CNC(=O)Cc3ncccc3O)cc21` [Example 4.03] displayed a 50% inhibitory concentration (IC50) of 0.4 nM. Turning to `CCOc1cc2c(cc1C(=O)N1CCN(C(=O)OC(C)(C)C)CC1)[n+](CC)c(CNC(=O)c1nc(Cl)c(N)nc1N)n2CC` [Example 1.09], the IC50 turned out to be 7 nM. Against the preceding molecule, the IC50 is about 18-fold higher.

For the molecule `CCOc1cc2c(cc1C(=O)N1CCN(C(=O)c3cncc(O)c3)CC1)[n+](CC)c(CNC(=O)c1nc(Cl)c(N)nc1N)n2CC` [Example 4.16], it took 2 nM to reach half-maximal inhibition (IC50). As for `CCNC(=O)CN1CCC(NC(=O)c2cc3c(cc2F)[n+](CC)c(CNC(=O)c2nc(Cl)c(N)nc2N)n3CC)CC1` [Example 3.10], the figure is 1 nM.

Molecule `CCn1c(CNC(=O)c2nc(Cl)c(N)nc2N)[n+](CC)c2cc(C(=O)NC3CCNCC3)c(OCC(=O)NC3CCN(C)CC3)cc21` [Example 3.22] yielded an IC50 of 10 nM. As to `CCn1c(CNC(=O)c2nc(Cl)c(N)nc2N)[n+](CC)c2cc(C(=O)NC3CCNCC3)c(OCC(=O)O)cc21` [Example 7.02], the concentration for half-maximal inhibition (IC50) came out at 29 nM. Consider `CCn1c(CNC(=O)c2nc(Cl)c(N)nc2N)[n+](CC)c2ccc(OCCNC(=O)CN3CCC(NC(=O)OC(C)(C)C)CC3)cc21` [Example 4.10], for which 1 nM corresponded to half-maximal inhibition (IC50). Next, `CCn1c(CNC(=O)c2nc(Cl)c(N)nc2N)[n+](CC)c2ccc(OCCNC(=O)CN3CCOCC3)cc21` [Example 4.02]: 2 nM; `CCn1c(CNC(=O)c2nc(Cl)c(N)nc2N)[n+](CC)c2ccc(OCCNC(=O)[C@H](C)N(C)C(=O)OC(C)(C)C)cc21` [Example 4.08]: 2 nM. As for `CCNC(=O)c1cc2c(cc1OCC(=O)NCCOC)n(CC)c(CNC(=O)c1nc(Cl)c(N)nc1N)[n+]2CC` [Example 3.21], the figure is 9 nM; as for `CCn1c(CNC(=O)c2nc(Cl)c(N)nc2N)[n+](CC)c2ccc(OCCNC(=O)CN3CCC(N)CC3)cc21` [Example 6.05], 1 nM. As for `CCNC(=O)c1cc2c(cc1OCC(=O)NC1CCN(C(=O)OC(C)(C)C)CC1)n(CC)c(CNC(=O)c1nc(Cl)c(N)nc1N)[n+]2CC` [Example 3.19], the figure is 9 nM.

The molecule `CCn1c(CNC(=O)c2nc(Cl)c(N)nc2N)[n+](CC)c2ccc(OCC(=O)NCCN)cc21` [Example 3.25] came in with an IC50 of 1 nM. Next, `CCn1c(CNC(=O)c2nc(Cl)c(N)nc2N)[n+](CC)c2cc(F)c(C(=O)NCCCN(C)C)cc21` [Example 3.07]: 1 nM; `CCCn1c(CNC(=O)c2nc(Br)c(N)nc2N)[n+](C)c2ccc(OCC(=O)N(C)Cc3nc(C)ccc3O)cc21` [Example 2.01]: 1 nM. As for `CCNC(=O)COc1cc2c(cc1C(=O)NC1CCN(C(=O)OC(C)(C)C)CC1)[n+](CC)c(CNC(=O)c1nc(Cl)c(N)nc1N)n2CC` [Example 3.23], the figure is 8 nM; as for `CCCCCCN1CCC(NC(=O)COc2cc3c(cc2C(=O)NCC)[n+](CC)c(CNC(=O)c2nc(Cl)c(N)nc2N)n3CC)CC1` [Example 3.20], 15 nM; as for `CCNC(=O)COc1cc2c(cc1C(=O)NC1CCN(C(C)=O)CC1)[n+](CC)c(CNC(=O)c1nc(Cl)c(N)nc1N)n2CC` [Example 4.13], 4 nM. In turn, `CCCCCOc1cc2c(cc1C(=O)N1CCNCC1)[n+](CC)c(CNC(=O)c1nc(Cl)c(N)nc1N)n2C[C@H](C)O` [Example 8.03] showed an IC50 of 8 nM. Next, `CCCCCOc1cc2c(cc1C(=O)N1CCN(C(=O)c3cncc(O)c3)CC1)[n+](CC)c(CNC(=O)c1nc(Cl)c(N)nc1N)n2C[C@H](C)O` [Example 4.18]: 19 nM; `CCOc1cc2c(cc1C(=O)N1CCN(C(=O)Cc3ccccn3)CC1)[n+](CC)c(CNC(=O)c1nc(Cl)c(N)nc1N)n2CC` [Example 4.12]: 2 nM; `CCn1c(CNC(=O)c2nc(Cl)c(N)nc2N)[n+](CC)c2cc(C(=O)NC3CCN(C(=O)OC(C)(C)C)CC3)c(OCC(=O)O)cc21` [Example 9.01]: 9 nM.

As for `CCn1c(CNC(=O)c2nc(Cl)c(N)nc2N)[n+](CC)c2ccc(OCCNC(=O)CN3CCCC3)cc21` [Example 4.07], the IC50 turned out to be 1 nM. As for `CCn1c(CNC(=O)c2nc(Cl)c(N)nc2N)[n+](CC)c2ccc(OCCNC(=O)CN3CCN(C)CC3)cc21` [Example 4.05], the figure is 0.4 nM; as for `CCOc1cc2c(cc1C(=O)N1CCNCC1)[n+](CC)c(CNC(=O)c1nc(Cl)c(N)nc1N)n2CC` [Example 8.02], 1 nM.

In the case of `CCn1c(CNC(=O)c2nc(Cl)c(N)nc2N)[n+](CC)c2ccc(OCCNC(=O)C3CCCN3C)cc21` (stereo not shown) [Example 4.06], 0.3 nM corresponded to half-maximal inhibition (IC50). Consider `CCn1c(CNC(=O)c2nc(Cl)c(N)nc2N)[n+](CC)c2ccc(C(=O)NCCNC(C)=O)cc21` [Example 3.08], for which 0.4 nM corresponded to half-maximal inhibition (IC50). The IC50 values of the last two molecules are within 1.5-fold of each other. Next, `CCn1c(CNC(=O)c2nc(Cl)c(N)nc2N)[n+](CCO)c2cc(OCC(=O)N3CCN(C(C)=O)CC3)ccc21` [Example 1.14]: 3 nM; `CCNC(=O)COc1cc2c(cc1C(=O)NC1CCNCC1)[n+](CC)c(CNC(=O)c1nc(Cl)c(N)nc1N)n2CC` [Example 6.03]: 8 nM. Next, `CCn1c(CNC(=O)c2nc(Cl)c(N)nc2N)[n+](CC)c2cc(C(=O)NC3CCN(C(=O)OC(C)(C)C)CC3)c(OCC(=O)OC(C)(C)C)cc21` [Example 1.13]: 9 nM; `CCn1c(CNC(=O)c2nc(Cl)c(N)nc2N)[n+](CC)c2ccc(OCCNC(=O)C3CCCN3)cc21` (stereo not shown) [Example 6.04]: 0.4 nM. Next, `CCCCCC(=O)N(CCOc1ccc2c(c1)n(C[C@H](C)O)c(CNC(=O)c1nc(Cl)c(N)nc1N)[n+]2CC)CP(C)(C)=O` [Example 1.06]: 2 nM; `CCn1c(CNC(=O)c2nc(Cl)c(N)nc2N)[n+](CC)c2cc(C(=O)O)c(N3CCOCC3)cc21` [Example 6.01]: 14 nM. `CCn1c(CNC(=O)c2nc(Cl)c(N)nc2N)[n+](CC)c2cc(C(=O)NC3CCNCC3)c(F)cc21` [Example 6.06] displayed an IC50 of 0.4 nM. As for `CC[n+]1c(CNC(=O)c2nc(Cl)c(N)nc2N)n(C[C@H](C)O)c2cc(N(C)C)c(C(=O)N3CCNCC3)cc21` [Example 8.01], the figure is 6 nM. The molecule `CCNC(=O)c1cc2c(cc1OCC(=O)NC1CCNCC1)n(CC)c(CNC(=O)c1nc(Cl)c(N)nc1N)[n+]2CC` [Example 6.08] showed a half-inhibitory concentration (IC50) of 1 nM.
